Read-outs that look alike come from different tables or passages of the source.
How the values were obtained:
[1] = molecular target: T1, Recombinant STAT6 protein (STAT6 (W123-T658)) (Homo sapiens, UniProt P42226); experiment: STAT6 Fluorescence Polarization (FP) Assay; assay type: binding; conditions: 45-minute incubation
T1 construct: Recombinant STAT6 protein (STAT6 (W123-T658))
T1 sequence (P42226 123-658): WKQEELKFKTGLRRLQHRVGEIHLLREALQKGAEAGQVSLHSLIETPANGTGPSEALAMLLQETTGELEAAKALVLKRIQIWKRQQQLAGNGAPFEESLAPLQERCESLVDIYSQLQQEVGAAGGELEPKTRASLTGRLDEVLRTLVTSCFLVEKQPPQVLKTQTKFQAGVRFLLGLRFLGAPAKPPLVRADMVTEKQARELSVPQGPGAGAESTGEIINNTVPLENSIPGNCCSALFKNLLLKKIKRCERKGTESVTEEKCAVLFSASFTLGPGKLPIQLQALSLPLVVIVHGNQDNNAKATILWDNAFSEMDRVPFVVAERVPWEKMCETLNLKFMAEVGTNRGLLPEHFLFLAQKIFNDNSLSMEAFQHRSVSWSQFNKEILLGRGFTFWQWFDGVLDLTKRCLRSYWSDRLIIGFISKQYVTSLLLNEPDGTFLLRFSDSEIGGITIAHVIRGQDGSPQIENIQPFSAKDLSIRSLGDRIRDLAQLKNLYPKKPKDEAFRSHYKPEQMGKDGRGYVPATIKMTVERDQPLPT
Protocol: STAT6 Fluorescence Polarization (FP) Assay
An FP assay was developed to determine IC50 values for test substances. Recombinant STAT6 protein (STAT6 (W123-T658)) at 250 nM was combined with a fluorescently labeled, phosphotyrosine peptide probe (5-FAM-Ap[…]-NH2) at 2 nM in FP buffer (10 mM HEPES pH 7.4, 50 mM NaCl, 1 mM EDTA, 0.05% Tween 20, 2 mM DTT). 50 μL of STAT6-probe mixture was added to serial diluted compounds in black, 96-well plates (Greiner BioOne 655076) to a final concentration of 1% DMSO. Reaction components were mixed, and FP was measured after 45-minute incubation at room temperature using a Tecan Spark multimode plate reader. FP signal (mP) was plotted against the log concentration of the test substances and IC50 values were calculated by nonlinear regression analysis using GraphPad Prism software. For STAT6 FP assay, A=≤300 nM; B=>300-3000 nM; C=>3-30 μM; and D=>30 μM.

[2] = molecular target: T2, Recombinant STAT3 protein (STAT3 (G127-I722)) (Homo sapiens, UniProt P40763); experiment: STAT3 Fluorescence Polarization (FP) Assay; assay type: binding; conditions: probe 5-FAM-GpYLPQTV-NH2 2 nM, 45-minute incubation
T2 construct: Recombinant STAT3 protein (STAT3 (G127-I722))
T2 sequence (P40763 127-722): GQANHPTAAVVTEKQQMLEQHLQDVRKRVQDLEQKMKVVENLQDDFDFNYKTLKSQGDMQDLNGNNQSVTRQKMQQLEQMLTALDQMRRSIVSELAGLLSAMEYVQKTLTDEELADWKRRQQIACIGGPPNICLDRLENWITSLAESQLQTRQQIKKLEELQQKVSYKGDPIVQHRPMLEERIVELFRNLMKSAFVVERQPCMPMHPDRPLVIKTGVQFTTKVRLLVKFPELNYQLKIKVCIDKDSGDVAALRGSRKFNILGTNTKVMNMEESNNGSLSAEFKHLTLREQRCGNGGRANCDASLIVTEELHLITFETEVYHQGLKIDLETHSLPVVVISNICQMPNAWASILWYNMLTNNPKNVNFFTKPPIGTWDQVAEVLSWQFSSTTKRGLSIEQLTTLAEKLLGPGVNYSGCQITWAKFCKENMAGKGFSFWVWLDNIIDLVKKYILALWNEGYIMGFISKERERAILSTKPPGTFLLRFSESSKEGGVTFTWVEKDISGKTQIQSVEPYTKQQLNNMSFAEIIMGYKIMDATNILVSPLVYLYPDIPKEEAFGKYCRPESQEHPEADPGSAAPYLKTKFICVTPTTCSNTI
Protocol: STAT3 Fluorescence Polarization (FP) Assay
An FP assay was developed to determine IC50 values for test substances. Recombinant STAT3 protein (STAT3 (G127-I722)) at 25 nM was combined with a fluorescently labeled, phosphotyrosine peptide probe (5-FAM-GpYLPQTV-NH2) at 2 nM in FP buffer (10 mM HEPES pH 7.4, 50 mM NaCl, 1 mM EDTA, 0.05% Tween 20.2 mM DTT). 50 μL of STAT3-probe mixture was added to serial diluted compounds in black, 96-well plates (Greiner BioOne 655076) to a final concentration of 1% DMSO. Reaction components were mixed, and FP was measured after 45-minute incubation at room temperature using a Tecan Spark multimode plate reader. FP signal (mP) was plotted against the log concentration of the test substances and IC50 values were calculated by nonlinear regression analysis using GraphPad Prism software. For STAT3 FP assay, A=≤100 nM; B=>100-1000 nM; C=>1-10 μM; and D=>10 μM.

[3] = STAT6 (W123-T658) 250 nM, probe 5-FAM-Ap[…]-NH2 2 nM, read-out: STAT6 (FP assay IC50 class)
[4] = STAT3 (G127-I722) 25 nM, read-out: STAT3 (FP assay IC50 class)
[5] = STAT6 (W123-T658) 250 nM, probe 5-FAM-ApYKPFQDLI-NH2 2 nM, read-out: STAT6 (FP assay IC50 class)
[6] = STAT6 250 nM, probe 5-FAM-Ap[…]-NH2 2 nM, read-out: STAT6 (FP assay IC50)
[7] = STAT3 25 nM, read-out: STAT3 (FP assay IC50)

| SMILES | IC50 [1, 3] | IC50 [2, 4] | IC50 [1, 6] | IC50 [2, 7] | also measured |
| --- | --- | --- | --- | --- | --- |
| N#C[C@@H]1CN(C(=O)[C@@H]2C[C@@H](O)[C@@H]3CCCCC[C@H](NC(=O)c4cc5cc(C(F)P(=O)(O)O)ccc5s4)C(=O)N23)C[C@H]1c1ccccc1 (relative stereo) [Compound 553, ((2-(((1R,3S,6S,11aS)-3-((rel-trans)-3-cyano-4-phenylpyrrolidine-1-carbonyl)-1-hydroxy-5-oxodecahydro-1H-pyrrolo[1,2-a]azonin-6-yl)carbamoyl)benzo[b]thiophen-5-yl)fluoromethyl)phosphonic acid] | 300 to 3000 nM | 1000 to 10000 nM | – | – | – |
| N#CC1CN(C(=O)[C@@H]2CC[C@@H]3CC[C@H](NC(=O)c4cc5cc(C(F)(F)P(=O)(O)O)ccc5s4)C(=O)N32)C[C@@H]1c1ccccc1 (relative stereo) [Compound 733, ((2-(((3S,6S,8aS)-3-((rel-trans)-3-cyano-4-phenylpyrrolidine-1-carbonyl)-5-oxooctahydro-indolizin-6-yl)carbamoyl)benzo [b]thiophen-5-yl)difluoromethyl) phosphonic acid] | 300 to 3000 nM | 1000 to 10000 nM | – | – | – |
| N#CC1CN(C(=O)[C@@H]2C[C@@H](O)[C@H]3C/C=C\C[C@H](NC(=O)c4cc5cc(C(F)(F)P(=O)(O)O)ccc5s4)C(=O)N32)CC1c1ccccc1 (relative stereo) [Compound 758, ((2-(((1R,3S,6S,10aR,Z)-3-((rel-trans)-3-cyano-4-phenylpyrrolidine-1-carbonyl)-1-hydroxy-5-oxo-1,2,3,5,6,7,10,10a-octahydropyrrolo[1,2-a]azocin-6-yl)carbamoyl)benzo [b]thiophen-5-yl)difluoromethyl) phosphonic acid] | – | 1000 to 10000 nM | – | – | IC50 [1, 5]: 300 to 3000 nM |
| N#C[C@@H]1CN(C(=O)[C@@H]2CC[C@@H]3CCCC[C@H](NC(=O)c4cc5cc(C(F)(F)P(=O)(O)O)ccc5s4)C(=O)N32)C[C@H]1c1cccc(=O)[nH]1 (relative stereo) [Compound 867, ((2-(((3S,6S,10aS)-3-((rel-trans)-3-cyano-4-(6-oxo-1,6-dihydropyridin-2-yl)pyrrolidine-1-carbonyl)-5-oxodecahydropyrrolo [1,2-a]azocin-6-yl)carbamoyl)benzo [b]thiophen-5-yl)difluoromethyl) phosphonic acid] | – | 100 to 1000 nM | – | – | IC50 [1, 5]: ≤ 300 nM |
| O=C(N[C@H]1CCCC[C@H]2CC[C@@H](C(=O)N[C@H]3COCC3F)N2C1=O)c1cc2cc(C(F)(F)P(=O)(O)O)ccc2s1 (relative stereo) [Compound 1109, (difluoro(2-(((3S,6S,10aS)-3-(((rel-trans)-4-fluorotetrahydrofuran-3-yl)carbamoyl)-5-oxodecahydropyrrolo[1,2-a]azocin-6-yl)carbamoyl)benzo[b]thiophen-5-yl)methyl)phosphonic acid] | 300 to 3000 nM | 100 to 1000 nM | – | – | – |
| N#C[C@@H]1CN(C(=O)[C@@H]2CC[C@@H]3CCCC[C@H](NC(=O)c4cc5cc(C(F)(F)P(=O)(O)O)ccc5s4)C(=O)N32)C[C@H]1c1ccccc1 (single isomer, unassigned) [Compound 22, ((2-(((3S,6S,10aS)-3-((3S,4R or 3R,4S))-3-cyano-4-phenylpyrrolidine-1-carbonyl)-5-oxodecahydropyrrolo [1,2-a]azocin-6-yl)carbamoyl)benzo[b]thiophen-5-yl) difluoromethyl) phosphonic acid] | – | – | ≤ 300 nM | 1000 to 10000 nM | – |
| N#C[C@@H]1CN(C(=O)[C@@H]2CC[C@@H]3CCCC[C@H](NC(=O)c4ccc5ccc(C(F)(F)P(=O)(O)O)cc5c4)C(=O)N32)C[C@H]1c1cc[nH]c(=O)c1 (single isomer, unassigned) [Compound 79, ((7-(((3S,6S,10aS)-3-((3S,4R or 3R,4S)-3-cyano-4-(2-oxo-1,2-dihydropyridin-4-yl)pyrrolidine-1-carbonyl)-5-oxodecahydropyrrolo [1,2-a]azocin-6-yl)carbamoyl)naphthalen-2-yl)difluoromethyl) phosphonic acid] | – | – | – | 100 to 1000 nM | IC50 ([1]; STAT6 250 nM, probe 5-FAM-ApYKPFQDLI-NH2 2 nM, read-out: STAT6 (FP assay IC50)): ≤ 300 nM |

Continued, in another order:

| IC50 [1, 3] | IC50 [2, 4] | IC50 [1, 6] | IC50 [2, 7] | SMILES | also measured |
| --- | --- | --- | --- | --- | --- |
| ≤ 300 nM | 1000 to 10000 nM | – | – | N#C[C@H]1CN(C(=O)[C@@H]2CCC[C@@H]3CCCC[C@H](NC(=O)c4cc5cc(C(F)P(=O)(O)O)ccc5s4)C(=O)N32)C[C@@H]1c1ccccc1 (relative stereo) [Compound 552, ((2-(((4S,7S,11aS)-4-((rel-trans)-3-cyano-4-phenylpyrrolidine-1-carbonyl)-6-oxodecahydro-2H-pyrido[1,2-a]azocin-7-yl)carbamoyl)benzo[b]thiophen-5-yl)fluoromethyl)phosphonic acid] | – |
| 3000 to 30000 nM | 1000 to 10000 nM | – | – | O=C(N[C@H]1CCCC[C@H]2CC[C@@H](C(=O)N[C@H]3COC[C@H]3F)N2C1=O)c1cc2cc(C(F)(F)P(=O)(O)O)ccc2s1 (relative stereo) [Compound 1111, (difluoro(2-(((3S,6S,10aS)-3-(((rel-trans)-4-fluorotetrahydrofuran-3-yl)carbamoyl)-5-oxodecahydropyrrolo[1,2-a]azocin-6-yl)carbamoyl)benzo[b]thiophen-5-yl)methyl)phosphonic acid] | – |
| – | – | ≤ 300 nM | 100 to 1000 nM | C[C@@]1(O)CC[C@H]2CC[C@@H](C(=O)N3C[C@H](c4ccccc4)[C@@H](C#N)C3)N2C(=O)[C@@H](NC(=O)c2cc3cc(C(F)(F)P(=O)(O)O)ccc3s2)C1 (single isomer, unassigned) [Compound 14, ((2-(((3S,6S,8R,10aR)-3-((3R,4S or 3S,4R)-3-cyano-4-phenylpyrrolidine-1-carbonyl)-8-hydroxy-8-methyl-5-oxodecahydropyrrolo [1,2-a]azocin-6-yl)carbamoyl)benzo[b]thiophen-5-yl)difluoromethyl) phosphonic acid] | – |
| – | – | ≤ 300 nM | 1000 to 10000 nM | N#C[C@@H]1CN(C(=O)[C@@H]2CC[C@@H]3CCCC[C@H](NC(=O)c4cc5cc([C@H](F)P(=O)(O)O)ccc5s4)C(=O)N32)C[C@H]1c1ccccc1 (single isomer, unassigned) [Compound 18, ((2-(((3S,6S,10aS)-3-((3S,4R or 3R,4S)-3-cyano-4-phenylpyrrolidine-1-carbonyl)-5-oxodecahydropyrrolo [1,2-a]azocin-6-yl)carbamoyl)benzo[b]thiophen-5-yl)fluoromethyl) phosphonic acid] | – |
| – | – | ≤ 300 nM | 1000 to 10000 nM | N#C[C@@H]1CN(C(=O)[C@@H]2CC[C@@H]3CCCC[C@H](NC(=O)c4cc5cc([C@@H](F)P(=O)(O)O)ccc5s4)C(=O)N32)C[C@H]1c1ccccc1 (single isomer, unassigned) [Compound 19, ((2-(((3S,6S,10aS)-3-((3S,4R or 3R,4S))-3-cyano-4-phenylpyrrolidine-1-carbonyl)-5-oxodecahydropyrrolo [1,2-a]azocin-6-yl)carbamoyl)benzo[b]thiophen-5-yl)fluoromethyl) phosphonic acid] | – |
